Measured values published in ChEMBL document CHEMBL5634089, “Design, synthesis and evaluation of 2-pyrimidinylindole derivatives as anti-obesity agents by regulating lipid metabolism” (Eur J Med Chem, 2023).
Converted amounts (≈) assume the structure as drawn.

Assays:
3T3-L1 [1] = assay: Anti-adipogenic activity in mouse 3T3-L1 cells assessed as lipid-lowering activity at 1 uM measured after 9 days by Oil Red O staining based microplate reader analysis relative to control; type: functional; conditions: time 9 day
3T3-L1 [2] = assay: Anti-adipogenic activity in mouse 3T3-L1 cells assessed as lipid-lowering activity measured after 9 days by Oil Red O staining based microplate reader analysis; type: functional, cell-based; conditions: 3T3-L1, 216 h
[3] = Cytotoxicity against mouse 3T3-L1 cells assessed as reduction in cell viability incubated for 24 hrs by Sulforhodamine B assay; type: toxicity, cell-based
[4] = Therapeutic index, ratio of IC50 for cytotoxicity against mouse 3T3-L1 cells to EC50 for anti-adipogenic in mouse 3T3-L1 cells; type: toxicity, cell-based; conditions: read-out: Ratio IC50/EC50
[5] = Half life in Sprague-Dawley rat at 2 mg/kg, iv administered for 24 hrs by LC-MS/MS analysis; type: ADME, organism-based; conditions: in vivo
[6] = AUC (0 to t) in Sprague-Dawley rat at 2 mg/kg, iv administered for 24 hrs by LC-MS/MS analysis; type: ADME, organism-based; conditions: in vivo
[7] = AUC (0 to infinity) in Sprague-Dawley rat at 2 mg/kg, iv administered for 24 hrs by LC-MS/MS analysis; type: ADME, organism-based; conditions: in vivo
[8] = MRT (0 to t) in Sprague-Dawley rat at 2 mg/kg, iv administered for 24 hrs by LC-MS/MS analysis; type: ADME, organism-based; conditions: in vivo
[9] = Apparent volume of distribution during terminal phase in Sprague-Dawley rat at 2 mg/kg, iv administered for 24 hrs by LC-MS/MS analysis; type: ADME, organism-based; conditions: in vivo
[10] = Half life in Sprague-Dawley rat at 5 mg/kg, po administered for 24 hrs by LC-MS/MS analysis; type: ADME, organism-based; conditions: in vivo
[11] = Tmax in Sprague-Dawley rat at 5 mg/kg, po administered for 24 hrs by LC-MS/MS analysis; type: ADME, organism-based; conditions: in vivo
[12] = Cmax in Sprague-Dawley rat at 5 mg/kg, po administered for 24 hrs by LC-MS/MS analysis; type: ADME, organism-based; conditions: in vivo
[13] = AUC (0 to t) in Sprague-Dawley rat at 5 mg/kg, po administered for 24 hrs by LC-MS/MS analysis; type: ADME, organism-based; conditions: in vivo
[14] = AUC (0 to infinity) in Sprague-Dawley rat at 5 mg/kg, po administered for 24 hrs by LC-MS/MS analysis; type: ADME, organism-based; conditions: in vivo
[15] = MRT (0 to t) in Sprague-Dawley rat at 5 mg/kg, po administered for 24 hrs by LC-MS/MS analysis; type: ADME, organism-based; conditions: in vivo
[16] = Apparent volume of distribution during terminal phase in Sprague-Dawley rat at 5 mg/kg, po administered for 24 hrs by LC-MS/MS analysis; type: ADME, organism-based; conditions: in vivo, read-out: Vz/F
[17] = Apparent oral clearance in Sprague-Dawley rat at 5 mg/kg, po administered for 24 hrs by LC-MS/MS analysis; type: ADME, organism-based; conditions: in vivo
[18] = Oral bioavailability (0 to t) in Sprague-Dawley rat at 5 mg/kg administered for 24 hrs by LC-MS/MS analysis; type: ADME, organism-based; conditions: in vivo
[19] = Oral bioavailability (0 to infinity) in Sprague-Dawley rat at 5 mg/kg administered for 24 hrs by LC-MS/MS analysis; type: ADME, organism-based; conditions: in vivo
[20] = Aqueous solubility of compound incubated for 24 hrs by HPLC analysis; type: physicochemical; conditions: aqueous medium

In the case of `CC(=O)c1c(-c2nc(C)cc(NCCCN(C)C)n2)[nH]c2ccccc12`, the Activity (3T3-L1 [1]) is reported as 99.8%, the EC50 (3T3-L1 [2]) is reported as 225 nM and the IC50 at 24 h [3] is reported as 33900 nM. It also gave a selectivity ratio [4] of 151.

`CC(=O)c1c(-c2nc(C)c(C)c(NCCCN(C)C)n2)[nH]c2ccccc12` gave an Activity (3T3-L1 [1]) of 92.1%, an EC50 (3T3-L1 [2]) of 509 nM and an IC50 at 24 h [3] of 30400 nM. The selectivity ratio [4] was 60.

For `COc1cnc(-c2[nH]c3ccccc3c2C(C)=O)nc1NCCN1CCCC1`, the Activity (3T3-L1 [1]) was 48.3%.

`CC(=O)c1c(-c2nc(NCCCN(C)C)cc(C(F)(F)F)n2)[nH]c2ccccc12` showed an Activity (3T3-L1 [1]) of 15.5%.

In the case of `CC(=O)c1c(-c2nc(NCCN(C)C)c3ccccc3n2)[nH]c2ccccc12`, the Activity (3T3-L1 [1]) is reported as 100.5%, the EC50 (3T3-L1 [2]) is reported as 78 nM and the IC50 at 24 h [3] is reported as 6310 nM. It also gave a selectivity ratio [4] of 81.

`CC(=O)c1c(-c2nc3c(c(NCCN(C)C)n2)CNCC3)[nH]c2ccccc12` gave an Activity (3T3-L1 [1]) of 25.1%.

Work on `CC(=O)c1c(-c2nc(NCCCN(C)C)cc(-c3cccnc3)n2)[nH]c2ccccc12` yielded an Activity (3T3-L1 [1]) of 48.2%.

`CC(=O)c1c(-c2nc(NCCN3CCCC3)cc(C(F)(F)F)n2)[nH]c2ccccc12` showed an Activity (3T3-L1 [1]) of 54.4%.

In the case of `COc1cnc(-c2[nH]c3ccccc3c2C(C)=O)nc1NCCCN1CCCC1`, the Activity (3T3-L1 [1]) is reported as 49.7%.

`CC(=O)c1c(-c2nc(NCCN3CCCC3)c3ccccc3n2)[nH]c2ccccc12` showed an Activity (3T3-L1 [1]) of 99.5%, an EC50 (3T3-L1 [2]) of 45 nM and a half-life [5] of 12.4 h. It also gave an IC50 at 24 h [3] of 8490 nM, a selectivity ratio [4] of 190 and an AUC(0-t) at 24 h [6] of 603 ng·h/mL. The AUC(0-inf) [7] was 749 ng·h/mL, the MRT last at 24 h [8] was 14 h and the Vz/F [9] was 47.8 L/kg. For the same molecule, the half-life [10] was 6.5 h, the Tmax [11] was 1.2 h and the Cmax [12] was 63.7 ng/mL. It also gave an AUC(0-t) at 24 h [13] of 574 ng·h/mL, an AUC(0-inf) [14] of 616 ng·h/mL and an MRT last at 24 h [15] of 9.1 h. For the same molecule, the Vd/F [16] was 77.8 L/kg, the CL/F [17] was 137 mL/min/kg and the bioavailability [18] was 38.1%. It also gave a bioavailability [19] of 32.9% and a solubility at 24 h [20] of 8 µg/mL (≈ 20 µM).

With `COc1cnc(-c2[nH]c3ccccc3c2C(C)=O)nc1NCCCN(C)C` the Activity (3T3-L1 [1]) was 54.4%.

For `CC(=O)c1c(-c2nc(NCCN(C)C)c3cccnc3n2)[nH]c2ccccc12`, the Activity (3T3-L1 [1]) was 22.4%.

Work on `CC(=O)c1c(-c2nc(NCCCN(C)C)cc(-c3ccc(C(C)(C)C)cc3)n2)[nH]c2ccccc12` yielded an Activity (3T3-L1 [1]) of 20.5%.

`CC(=O)c1c(-c2nc(O)cc(NCCCN(C)C)n2)[nH]c2ccccc12` gave an Activity (3T3-L1 [1]) of -3.1%.

`CC(=O)c1c(-c2ncc(C)c(NCCN3CCCC3)n2)[nH]c2ccccc12` gave an Activity (3T3-L1 [1]) of 99.8%, an EC50 (3T3-L1 [2]) of 111 nM and an IC50 at 24 h [3] of 23400 nM. It also gave a selectivity ratio [4] of 212.

`CC(=O)c1c(-c2nc(NCCCN(C)C)c3ncn(C)c3n2)[nH]c2ccccc12` showed an Activity (3T3-L1 [1]) of 99.9%, an EC50 (3T3-L1 [2]) of 309 nM and an IC50 at 24 h [3] of 57700 nM. It also gave a selectivity ratio [4] of 187.

Work on `CC(=O)c1c(-c2nc3c(c(NCCN(C)C)n2)COC3)[nH]c2ccccc12` yielded an Activity (3T3-L1 [1]) of 46.9%.

Molecule `CC(=O)c1c(-c2ncc(F)c(NCCN3CCCC3)n2)[nH]c2ccccc12` has an Activity (3T3-L1 [1]) of 102.6%, an EC50 (3T3-L1 [2]) of 180 nM and an IC50 at 24 h [3] of 37400 nM. The selectivity ratio [4] was 208.

For `CC(=O)c1c(-c2nc3c(c(NCCCN(C)C)n2)CCCC3)[nH]c2ccccc12`, the Activity (3T3-L1 [1]) was 28%.

`CC(=O)c1c(-c2ncc(F)c(NCCCN(C)C)n2)[nH]c2ccccc12` showed an Activity (3T3-L1 [1]) of 58%.

In the case of `CC(=O)c1c(-c2nc(NCCN3CCCC3)c3cccnc3n2)[nH]c2ccccc12`, the Activity (3T3-L1 [1]) is reported as 16.8%.

Molecule `CC(=O)c1c(-c2ncc(C)c(NCCCN(C)C)n2)[nH]c2ccccc12` has an Activity (3T3-L1 [1]) of 101.8%, an EC50 (3T3-L1 [2]) of 127 nM and an IC50 at 24 h [3] of 32200 nM. It also gave a selectivity ratio [4] of 254.

Work on `CC(=O)c1c(-c2nccc(NCCCN(C)C)n2)[nH]c2ccccc12` yielded an Activity (3T3-L1 [1]) of 79.5%.

`CC(=O)c1c(-c2nc(NCCCN(C)C)cc(-c3ccccc3)n2)[nH]c2ccccc12` gave an Activity (3T3-L1 [1]) of 26.9%.

Molecule `CC1=C(O)C(=O)C=C2C1=CC=C1[C@@]2(C)CC[C@@]2(C)[C@@H]3C[C@](C)(C(=O)O)CC[C@]3(C)CC[C@]12C` [CELASTROL] has an EC50 (3T3-L1 [2]) of 99 nM, an IC50 at 24 h [3] of 730 nM and a selectivity ratio [4] of 7.

`CCc1cc(NCCCN(C)C)nc(-c2[nH]c3ccccc3c2C(C)=O)n1` showed an Activity (3T3-L1 [1]) of 73.8%.

With `CC(=O)c1c(-c2nc(NCCN3CCCC3)c3ncn(C)c3n2)[nH]c2ccccc12` the Activity (3T3-L1 [1]) was 99.5%, the EC50 (3T3-L1 [2]) was 295 nM and the IC50 at 24 h [3] was 65500 nM. For the same molecule, the selectivity ratio [4] was 222.

In the case of `CCc1cc(NCCN2CCCC2)nc(-c2[nH]c3ccccc3c2C(C)=O)n1`, the Activity (3T3-L1 [1]) is reported as 58.5%.

`CC(=O)c1c(-c2nccc(NCCN(C)C)n2)[nH]c2ccccc12` showed an Activity (3T3-L1 [1]) of 103.9%, an EC50 (3T3-L1 [2]) of 254 nM and an IC50 at 24 h [3] of 28400 nM. For the same molecule, the selectivity ratio [4] was 112.

`CC(=O)c1c(-c2nc(C)cc(NCCN3CCCC3)n2)[nH]c2ccccc12` gave an Activity (3T3-L1 [1]) of 98.3%, an EC50 (3T3-L1 [2]) of 89 nM and an IC50 at 24 h [3] of 18000 nM. The selectivity ratio [4] was 202.

Molecule `CC(=O)c1c(-c2nc3c(c(NCCN4CCCC4)n2)CCCC3)[nH]c2ccccc12` has an Activity (3T3-L1 [1]) of 20.5%.

Work on `CC(=O)c1c(-c2nc(NCCN3CCCC3)cc(-c3ccccc3)n2)[nH]c2ccccc12` yielded an Activity (3T3-L1 [1]) of 5.9%.
